Results taken from PubChem BioAssay (NCI).
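Step 1: Grow cells in 96-well plates. Step 2: Expose to compound for 48 hours at 5 concentrations. Step 3: Interpolate endpoints linearly; if unreached, use highest concentration. At the GI50, growth is halved. TGI: concentration producing complete growth inhibition.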

Assays:
Test in all cases: NCI anticancer screen, dose series, 48 h
786-0 renal = tested on: 786-0 renal
A498 renal = tested on: A498 renal
A549 NSCLC = tested on: A549 NSCLC
ACHN renal = tested on: ACHN renal
BT-549 breast = tested on: BT-549 breast
CAKI-1 renal = tested on: CAKI-1 renal
CCRF-CEM leukemia = tested on: CCRF-CEM leukemia
COLO 205 colon = tested on: COLO 205 colon
DU-145 prostate = tested on: DU-145 prostate
EKVX NSCLC = tested on: EKVX NSCLC
HCC-2998 colon = tested on: HCC-2998 colon
HCT-116 colon = tested on: HCT-116 colon
HCT-15 colon = tested on: HCT-15 colon
HL-60(TB) leukemia = tested on: HL-60(TB) leukemia
HOP-62 NSCLC = tested on: HOP-62 NSCLC
HOP-92 NSCLC = tested on: HOP-92 NSCLC
HS 578T breast = tested on: HS 578T breast
HT29 colon = tested on: HT29 colon
IGROV1 ovarian = tested on: IGROV1 ovarian
K-562 leukemia = tested on: K-562 leukemia
KM12 colon = tested on: KM12 colon
LOX IMVI melanoma = tested on: LOX IMVI melanoma
M14 melanoma = tested on: M14 melanoma
MCF7 breast = tested on: MCF7 breast
MDA-MB-231 breast = tested on: MDA-MB-231 breast
MDA-MB-435 = tested on: MDA-MB-435
MOLT-4 leukemia = tested on: MOLT-4 leukemia
NCI-H226 lung = tested on: NCI-H226 lung

Question: How did the GI50 (786-0 renal) turn out when `COc1ccc(N2CCN(CC(=O)N3CCN(c4nnc(-c5ccc(Cl)cc5)c(-c5ccc(Cl)cc5)n4)CC3)CC2)cc1` was run?
Answer: 10 µM

Question: And the TGI (786-0 renal)?
Answer: > 100 µM

Question: And the GI50 (A498 renal)?
Answer: 13.4 µM

Question: What about the TGI (A498 renal) of the same molecule?
Answer: > 100 µM

Question: What about the GI50 (A549 NSCLC) of the same molecule?
Answer: 11.8 µM

Question: And the TGI (A549 NSCLC)?
Answer: > 100 µM

Question: What about the GI50 (ACHN renal) of the same molecule?
Answer: 6.42 µM

Question: What about the TGI (ACHN renal) of the same molecule?
Answer: 55.6 µM

Question: What about the GI50 (BT-549 breast) of the same molecule?
Answer: 4.83 µM

Question: What about the TGI (BT-549 breast) of the same molecule?
Answer: > 100 µM

Question: What about the GI50 (CAKI-1 renal) of the same molecule?
Answer: 16.6 µM

Question: And the TGI (CAKI-1 renal)?
Answer: 82.7 µM

Question: And the GI50 (CCRF-CEM leukemia)?
Answer: 12.6 µM

Question: What about the TGI (CCRF-CEM leukemia) of the same molecule?
Answer: > 100 µM

Question: And the GI50 (COLO 205 colon)?
Answer: 6.6 µM

Question: And the TGI (COLO 205 colon)?
Answer: > 100 µM

Question: And the GI50 (DU-145 prostate)?
Answer: 75 µM

Question: What about the TGI (DU-145 prostate) of the same molecule?
Answer: > 100 µM

Question: What about the GI50 (EKVX NSCLC) of the same molecule?
Answer: > 100 µM

Question: What about the TGI (EKVX NSCLC) of the same molecule?
Answer: > 100 µM

Question: And the GI50 (HCC-2998 colon)?
Answer: 9.94 µM

Question: And the TGI (HCC-2998 colon)?
Answer: > 100 µM

Question: What about the GI50 (HCT-116 colon) of the same molecule?
Answer: 3.96 µM

Question: What about the TGI (HCT-116 colon) of the same molecule?
Answer: > 100 µM

Question: And the GI50 (HCT-15 colon)?
Answer: 6.8 µM

Question: What about the TGI (HCT-15 colon) of the same molecule?
Answer: > 100 µM

Question: What about the GI50 (HL-60(TB) leukemia) of the same molecule?
Answer: 14.3 µM

Question: What about the TGI (HL-60(TB) leukemia) of the same molecule?
Answer: > 100 µM

Question: And the GI50 (HOP-62 NSCLC)?
Answer: > 100 µM

Question: And the TGI (HOP-62 NSCLC)?
Answer: > 100 µM

Question: What about the GI50 (HOP-92 NSCLC) of the same molecule?
Answer: 11.1 µM

Question: What about the TGI (HOP-92 NSCLC) of the same molecule?
Answer: 30.5 µM

Question: What about the GI50 (HS 578T breast) of the same molecule?
Answer: > 100 µM

Question: What about the TGI (HS 578T breast) of the same molecule?
Answer: > 100 µM

Question: What about the GI50 (HT29 colon) of the same molecule?
Answer: 4.03 µM

Question: And the TGI (HT29 colon)?
Answer: 43.2 µM

Question: And the GI50 (IGROV1 ovarian)?
Answer: 16 µM

Question: And the TGI (IGROV1 ovarian)?
Answer: > 100 µM

Question: What about the GI50 (K-562 leukemia) of the same molecule?
Answer: 5.8 µM

Question: And the TGI (K-562 leukemia)?
Answer: > 100 µM

Question: And the GI50 (KM12 colon)?
Answer: 4.86 µM

Question: And the TGI (KM12 colon)?
Answer: > 100 µM

Question: And the GI50 (LOX IMVI melanoma)?
Answer: 7.76 µM

Question: What about the TGI (LOX IMVI melanoma) of the same molecule?
Answer: > 100 µM

Question: What about the GI50 (M14 melanoma) of the same molecule?
Answer: 12.7 µM

Question: What about the TGI (M14 melanoma) of the same molecule?
Answer: > 100 µM

Question: And the GI50 (MCF7 breast)?
Answer: 3.91 µM

Question: What about the TGI (MCF7 breast) of the same molecule?
Answer: > 100 µM

Question: What about the GI50 (MDA-MB-231 breast) of the same molecule?
Answer: 35.4 µM

Question: And the TGI (MDA-MB-231 breast)?
Answer: > 100 µM

Question: What about the GI50 (MDA-MB-435) of the same molecule?
Answer: 9.06 µM

Question: What about the TGI (MDA-MB-435) of the same molecule?
Answer: > 100 µM

Question: And the GI50 (MOLT-4 leukemia)?
Answer: 3.1 µM

Question: And the TGI (MOLT-4 leukemia)?
Answer: > 100 µM

Question: What about the GI50 (NCI-H226 lung) of the same molecule?
Answer: > 100 µM

Question: What about the TGI (NCI-H226 lung) of the same molecule?
Answer: > 100 µM
